Activity calls are given as the source filed them.
Columns and labels:
[1] = molecular target: T1, Endoribonuclease toxin MazF (Escherichia coli K-12, UniProt P0AE70); test: fluorescent RNA oligo signal without MazF, dose response, counter-screen for MazEF activator project, biochemical, fluorescence, single-stranded RNase substrate (AID 588502); format: functional
T1 sequence (P0AE70 whole entry): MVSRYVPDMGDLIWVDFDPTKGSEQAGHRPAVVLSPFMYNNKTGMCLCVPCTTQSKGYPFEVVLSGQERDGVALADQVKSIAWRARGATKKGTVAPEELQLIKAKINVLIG

[2] = molecular target: T1, Endoribonuclease toxin MazF; test: MazF toxin RNase activators, dose response, biochemical, fluorescence, single-stranded RNA substrate, uHTS hits (AID 588481); format: functional
[3] = molecular target: T2, Heat shock factor protein 1 (Mus musculus, UniProt P38532); test: inhibition of MG132-induced HSE-luciferase signal, confirmation, cell-based, NIH3T3, luminescence, dose retest (AID 2382); format: functional;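 note: NIH3T3 fibroblasts with HSF1-driven luciferase reporter stressed by proteasome inhibitor MG132; luminescence from HSF1-driven luciferase expression after 8 hours of MG132 stress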
T2 sequence (P38532 whole entry): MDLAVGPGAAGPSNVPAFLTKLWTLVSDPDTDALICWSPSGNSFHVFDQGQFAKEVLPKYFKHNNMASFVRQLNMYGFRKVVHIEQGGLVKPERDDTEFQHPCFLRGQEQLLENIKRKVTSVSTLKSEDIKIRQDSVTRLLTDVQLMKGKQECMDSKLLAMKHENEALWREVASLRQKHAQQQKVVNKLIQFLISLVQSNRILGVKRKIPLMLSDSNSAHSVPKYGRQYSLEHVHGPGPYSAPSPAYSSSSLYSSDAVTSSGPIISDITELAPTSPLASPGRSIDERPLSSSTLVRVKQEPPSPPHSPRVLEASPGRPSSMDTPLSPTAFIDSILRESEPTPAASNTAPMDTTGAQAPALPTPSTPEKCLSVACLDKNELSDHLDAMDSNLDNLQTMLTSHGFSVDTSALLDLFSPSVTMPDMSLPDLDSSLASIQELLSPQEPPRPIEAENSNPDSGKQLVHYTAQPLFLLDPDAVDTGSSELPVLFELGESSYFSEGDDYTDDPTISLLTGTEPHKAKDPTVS

[4] = molecular target: Induced myeloid leukemia cell differentiation protein Mcl-1 (Homo sapiens, UniProt Q07820); format: functional
Prothrombin = Prothrombin (Bos taurus, UniProt P00735); test: thrombin inhibition, dose response, biochemical, fluorescence polarization, uHTS hits (AID 602369); format: functional
[5] = molecular target: 26S proteasome non-ATPase regulatory subunit 14 (Homo sapiens, UniProt O00487); test: inhibition of proteasome subunit RPN11 – biochemical, fluorescence polarization, uHTS hits, confirmation (AID 602368); format: functional
[6] = molecular target: 72 kDa type IV collagenase (Homo sapiens, UniProt P08253); test: Dose Response validation of uHTS RPN11 inhibitor hits using a MMP-2 Fluorescence assay.; format: functional
[7] = molecular target: Heat shock protein HSP 90-alpha (Homo sapiens, UniProt P07900); format: functional, organism-based
[8] = molecular target: SWI/SNF-related matrix-associated actin-dependent regulator of chromatin subfamily A member 2 (Homo sapiens, UniProt P51531); test: Luminescence-based cell-based high throughput dose response assay to identify activators of the function of SWI/SNF related, matrix associated, actin dependent regulator of chromatin, subfamily a, member 2 (SMARCA2, BRM).; format: functional
[9] = Counterscreen for activators of the function of SWI/SNF related, matrix associated, actin dependent regulator of chromatin, subfamily a, member 2 (SMARCA2, BRM): Luminescence-based cell-based high throughput dose response assay to identify non-selective compounds using the VP16 reporter assay.; format: functional
[10] = molecular target: DNA dC->dU-editing enzyme APOBEC-3A (Homo sapiens, UniProt P31941); test: Dose Response confirmation of small molecule APOBEC3A DNA Deaminase Inhibitors via a fluorescence-based single-stranded DNA deaminase assay. [Related pubchem assays (depositor defined):AID493011, AID493024]; format: functional
[11] = molecular target: DNA dC->dU-editing enzyme APOBEC-3G (Homo sapiens, UniProt Q9HC16); format: functional;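 note: Dose-response counterscreen measuring inhibition of APOBEC3G DNA deaminase activity, run while confirming APOBEC3A inhibitors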
[12] = growth suppression of PTEN-null colon cells, dose response, cell-based, HCT116 PTEN knockout (AID 1047); format: functional;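 note: HCT116 colon tumor cells with PTEN knocked out; cells exposed to compound for 60 hours before readout; potency for loss of cell viability measured by luminescence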
[13] = growth suppression of beta-catenin-knockout colon cells, dose response, cell-based, HCT116, human colon tumor (AID 1045); format: functional;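 note: HCT116 colon tumor cells with beta catenin knocked out; cells exposed to compound for 60 hours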
[14] = Counterscreen for inhibitors of Trypanosoma brucei methionyl tRNA synthetase (MetRS): Luminescence-based cell-based high throughput dose response assay to identify compounds that are cytotoxic to Jurkat human T lymphocyte cells.; format: functional
[15] = molecular target: T3, DNA repair protein RAD52 homolog (Homo sapiens, UniProt P43351); format: functional, biochemical
T3 sequence (P43351 whole entry): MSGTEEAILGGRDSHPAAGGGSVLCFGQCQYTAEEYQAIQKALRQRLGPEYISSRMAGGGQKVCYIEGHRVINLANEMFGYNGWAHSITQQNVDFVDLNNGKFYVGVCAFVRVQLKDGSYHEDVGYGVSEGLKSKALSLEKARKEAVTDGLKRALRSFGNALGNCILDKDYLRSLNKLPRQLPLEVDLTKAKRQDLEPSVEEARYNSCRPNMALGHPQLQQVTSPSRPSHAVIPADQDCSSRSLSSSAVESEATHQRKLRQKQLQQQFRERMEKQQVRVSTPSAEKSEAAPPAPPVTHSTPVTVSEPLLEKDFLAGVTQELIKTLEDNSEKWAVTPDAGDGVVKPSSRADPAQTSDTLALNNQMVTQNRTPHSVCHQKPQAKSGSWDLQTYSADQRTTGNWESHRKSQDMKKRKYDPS

[16] = inhibitors of clade B AD8 Env fusion, dose response, cell-based, cherry-pick (AID 652062); format: functional;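 note: luciferase signal from cell-cell fusion driven by HIV-1 clade B AD8 Env; potency is for inhibitors of fusion seen as a drop in luminescence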
[17] = off-target signal loss in HeLa-CEM21 co-culture – HeLa F-luc CTL cells, cherry-picked, counter-screen for HIV-1 Env fusion inhibitor project, dose response (AID 652040); format: functional, cell-based;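 note: potency for signal decrease marking cytotoxic or nonspecific inhibition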
[18] = CEM21 lymphoblast cell cytotoxicity, dose response, cytotoxicity control for viral fusion inhibitor project, CellTiter-Glo luminescence, cherry-picked (AID 652042); format: functional, cell-based;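 note: potency for signal decrease meaning cytotoxicity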
[19] = inhibitors of HIV Env-driven cell fusion, dose response, cherry-pick (AID 652057); format: functional, cell-based
[20] = intracellular Trypanosoma cruzi inhibitors in host cells – cell-based, plate reader, cherry-pick samples, set 3, dose response (AID 651818); format: functional;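 note: compounds incubated with infected cells for about four days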
[21] = molecular target: T4, Trace amine-associated receptor 1 (Homo sapiens, UniProt Q96RJ0); test: Counterscreen for agonists of the human trace amine associated receptor 1 (hTAAR1): Fluorescence-based cell-based high throughput dose response assay to identify hTAAR1 agonist that also desensitize TAAR1 receptor response.; format: functional
T4 sequence (Q96RJ0 whole entry): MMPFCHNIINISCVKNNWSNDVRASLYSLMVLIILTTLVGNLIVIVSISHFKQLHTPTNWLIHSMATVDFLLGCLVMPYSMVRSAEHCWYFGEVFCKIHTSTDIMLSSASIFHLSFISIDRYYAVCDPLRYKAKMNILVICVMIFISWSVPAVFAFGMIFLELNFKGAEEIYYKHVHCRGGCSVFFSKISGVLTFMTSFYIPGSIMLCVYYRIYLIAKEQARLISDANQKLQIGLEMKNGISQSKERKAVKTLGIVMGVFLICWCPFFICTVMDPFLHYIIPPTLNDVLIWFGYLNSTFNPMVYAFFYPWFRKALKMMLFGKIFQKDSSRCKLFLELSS

[22] = molecular target: T4, Trace amine-associated receptor 1; test: Fluorescence-based cell-based high throughput dose response assay to identify agonists of the human trace amine associated receptor 1 (TAAR1).; format: functional
cells [23] = format: functional, cell-based
cells [24] = format: functional, cell-based; remark: listed apart in the source
[25] = P. falciparum Dd2 growth inhibitors, dose response, SYBR Green, cherry-picked samples (AID 1159567); format: functional, cell-based
[26] = HepG2 cell cytotoxicity, dose response, cytotoxicity control, cherry-picked samples (AID 1159577); format: functional, cell-based
[27] = HepG2 cell cytotoxicity, dose response, cytotoxicity control, plate reader, dry powder samples (AID 1159569); format: functional, cell-based;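 note: inhibitor potency with signal falling toward the positive control level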
[28] = P. falciparum 3D7-ScDHODH growth inhibitors, dose response, SYBR Green, dry powder samples (AID 1159570); format: functional, cell-based;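 note: parasite growth measured after 72 hours of compound exposure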
[29] = P. falciparum ATP4 D1247Y mutant growth inhibitors, dose response, NITD609-resistant line, SYBR Green, dry powder (AID 1159571); format: functional, cell-based;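 note: parasites synchronized at ring stage by sorbitol before testing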
[30] = P. falciparum Dd2 growth inhibitors, dose response, SYBR Green, dry powder samples (AID 1159566); format: functional, cell-based;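 note: potency for growth inhibition with lower SYBR green DNA signal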

DNA dC->dU-editing enzyme APOBEC-3A, sequence (P31941 whole entry): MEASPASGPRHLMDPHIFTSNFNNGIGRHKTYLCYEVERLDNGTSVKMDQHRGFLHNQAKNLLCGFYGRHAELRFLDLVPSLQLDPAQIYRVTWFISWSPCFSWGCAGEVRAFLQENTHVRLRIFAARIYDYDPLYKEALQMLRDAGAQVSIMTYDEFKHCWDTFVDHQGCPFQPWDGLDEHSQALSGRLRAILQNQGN
DNA dC->dU-editing enzyme APOBEC-3G, sequence (Q9HC16 whole entry): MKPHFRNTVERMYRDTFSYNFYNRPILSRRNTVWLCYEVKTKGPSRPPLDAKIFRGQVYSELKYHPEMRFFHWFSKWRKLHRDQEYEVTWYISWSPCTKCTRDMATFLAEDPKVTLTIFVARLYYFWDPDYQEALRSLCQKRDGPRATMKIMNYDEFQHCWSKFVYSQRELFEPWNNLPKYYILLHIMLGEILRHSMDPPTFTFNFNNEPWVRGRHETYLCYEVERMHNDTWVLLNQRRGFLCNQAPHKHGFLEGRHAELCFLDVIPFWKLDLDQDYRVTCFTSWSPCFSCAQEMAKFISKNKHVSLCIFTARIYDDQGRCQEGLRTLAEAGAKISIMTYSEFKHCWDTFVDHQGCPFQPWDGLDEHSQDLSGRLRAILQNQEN
72 kDa type IV collagenase, sequence (P08253 whole entry): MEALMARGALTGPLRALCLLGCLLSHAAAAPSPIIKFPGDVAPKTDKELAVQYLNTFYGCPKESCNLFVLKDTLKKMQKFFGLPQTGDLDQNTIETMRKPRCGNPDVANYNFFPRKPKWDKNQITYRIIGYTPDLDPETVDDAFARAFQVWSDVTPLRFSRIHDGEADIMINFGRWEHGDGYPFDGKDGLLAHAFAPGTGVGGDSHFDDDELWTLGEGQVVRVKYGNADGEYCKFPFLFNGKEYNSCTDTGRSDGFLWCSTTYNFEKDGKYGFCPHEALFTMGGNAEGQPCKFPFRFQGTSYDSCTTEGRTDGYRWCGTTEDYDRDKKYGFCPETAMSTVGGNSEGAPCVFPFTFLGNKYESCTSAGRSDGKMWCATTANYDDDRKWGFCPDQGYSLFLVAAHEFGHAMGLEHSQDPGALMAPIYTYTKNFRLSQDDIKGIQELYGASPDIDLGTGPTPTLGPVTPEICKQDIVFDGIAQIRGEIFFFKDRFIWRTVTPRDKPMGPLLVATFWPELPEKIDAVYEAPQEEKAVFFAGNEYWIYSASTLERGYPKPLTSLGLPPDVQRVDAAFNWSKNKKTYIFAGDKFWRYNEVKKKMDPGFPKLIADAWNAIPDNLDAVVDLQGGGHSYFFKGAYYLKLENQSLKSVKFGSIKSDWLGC
26S proteasome non-ATPase regulatory subunit 14, sequence (O00487 whole entry): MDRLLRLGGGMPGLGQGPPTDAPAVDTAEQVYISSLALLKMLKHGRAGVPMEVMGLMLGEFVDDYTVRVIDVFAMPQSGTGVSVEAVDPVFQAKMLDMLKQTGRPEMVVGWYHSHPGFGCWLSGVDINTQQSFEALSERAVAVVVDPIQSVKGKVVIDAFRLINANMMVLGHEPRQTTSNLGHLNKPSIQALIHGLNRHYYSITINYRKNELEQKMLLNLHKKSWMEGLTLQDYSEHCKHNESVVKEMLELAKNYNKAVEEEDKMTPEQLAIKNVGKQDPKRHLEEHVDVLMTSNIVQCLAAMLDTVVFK
Induced myeloid leukemia cell differentiation protein Mcl-1, sequence (Q07820 whole entry): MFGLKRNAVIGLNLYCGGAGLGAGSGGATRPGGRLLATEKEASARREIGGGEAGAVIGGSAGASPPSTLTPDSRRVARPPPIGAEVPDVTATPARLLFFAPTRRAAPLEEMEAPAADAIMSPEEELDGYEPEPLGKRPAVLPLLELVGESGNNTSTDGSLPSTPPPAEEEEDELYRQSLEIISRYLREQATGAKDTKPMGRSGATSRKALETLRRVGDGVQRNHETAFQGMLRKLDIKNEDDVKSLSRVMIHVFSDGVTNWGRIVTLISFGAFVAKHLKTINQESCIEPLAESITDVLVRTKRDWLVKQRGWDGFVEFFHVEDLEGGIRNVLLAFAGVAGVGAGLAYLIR
SWI/SNF-related matrix-associated actin-dependent regulator of chromatin subfamily A member 2, sequence (P51531 whole entry): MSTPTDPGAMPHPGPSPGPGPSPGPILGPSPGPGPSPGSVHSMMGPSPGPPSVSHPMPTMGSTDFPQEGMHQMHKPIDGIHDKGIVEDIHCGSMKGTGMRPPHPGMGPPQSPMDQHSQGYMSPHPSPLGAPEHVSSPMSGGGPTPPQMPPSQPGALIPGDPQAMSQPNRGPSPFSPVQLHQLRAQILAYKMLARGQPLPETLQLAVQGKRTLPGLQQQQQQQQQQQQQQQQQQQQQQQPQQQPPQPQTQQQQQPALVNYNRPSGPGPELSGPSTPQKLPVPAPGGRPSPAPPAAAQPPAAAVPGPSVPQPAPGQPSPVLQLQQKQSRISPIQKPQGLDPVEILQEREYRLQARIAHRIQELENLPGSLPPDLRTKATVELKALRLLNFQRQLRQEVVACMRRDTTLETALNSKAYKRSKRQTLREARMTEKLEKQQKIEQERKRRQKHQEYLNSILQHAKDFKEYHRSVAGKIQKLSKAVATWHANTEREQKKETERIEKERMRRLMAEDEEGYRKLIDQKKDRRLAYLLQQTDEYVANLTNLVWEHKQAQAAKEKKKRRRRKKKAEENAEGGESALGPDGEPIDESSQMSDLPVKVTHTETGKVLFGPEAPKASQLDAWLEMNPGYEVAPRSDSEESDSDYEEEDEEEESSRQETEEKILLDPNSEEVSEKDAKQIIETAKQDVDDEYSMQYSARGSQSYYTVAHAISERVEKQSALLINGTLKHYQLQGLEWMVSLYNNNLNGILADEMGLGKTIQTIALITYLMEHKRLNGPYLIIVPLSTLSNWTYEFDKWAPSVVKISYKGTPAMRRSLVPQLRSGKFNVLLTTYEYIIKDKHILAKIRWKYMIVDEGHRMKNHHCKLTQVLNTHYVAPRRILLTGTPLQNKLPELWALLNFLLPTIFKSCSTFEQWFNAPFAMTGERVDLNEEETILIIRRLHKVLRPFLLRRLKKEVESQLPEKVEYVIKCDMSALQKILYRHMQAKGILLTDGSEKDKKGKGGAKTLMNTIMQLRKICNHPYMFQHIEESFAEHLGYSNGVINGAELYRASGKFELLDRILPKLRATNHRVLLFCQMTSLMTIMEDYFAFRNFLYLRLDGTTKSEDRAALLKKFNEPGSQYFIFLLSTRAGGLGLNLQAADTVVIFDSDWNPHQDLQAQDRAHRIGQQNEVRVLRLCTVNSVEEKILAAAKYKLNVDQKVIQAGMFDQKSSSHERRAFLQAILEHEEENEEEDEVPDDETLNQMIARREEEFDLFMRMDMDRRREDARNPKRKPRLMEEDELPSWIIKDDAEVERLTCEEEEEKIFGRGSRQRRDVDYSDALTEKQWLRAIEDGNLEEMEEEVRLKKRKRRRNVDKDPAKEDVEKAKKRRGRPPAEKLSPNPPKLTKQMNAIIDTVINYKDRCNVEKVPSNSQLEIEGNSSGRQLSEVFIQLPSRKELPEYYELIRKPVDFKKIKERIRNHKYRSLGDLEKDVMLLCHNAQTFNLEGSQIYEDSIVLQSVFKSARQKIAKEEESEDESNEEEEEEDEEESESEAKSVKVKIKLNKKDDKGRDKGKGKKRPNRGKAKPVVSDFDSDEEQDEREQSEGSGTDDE

NC(=O)c1c(NC(=O)C2COc3ccccc3O2)sc2c1CCN(Cc1ccccc1)C2 (stereo not drawn)
EC50 [1]: 85.1 µM (inactive)
EC50 [2]: 12.1 µM (active)
EC50 [3]: > 195 µM (not active)

O=C1SC(SCc2ccccc2Cl)=N/C1=C\c1ccc(C(=O)O)cc1
IC50 [4]: 5.02 µM (active)

N#Cc1c(-c2ccco2)cc(-c2ccc(F)cc2)nc1N
IC50 (Prothrombin): 20.9 µM (active)
IC50 [5]: 15.8 µM (active)
IC50 [6]: > 100 µM (inactive)

O=C(C1CCN(C2CC(=O)N(c3cccc(Cl)c3)C2=O)CC1)N1CCCC1 (stereo not drawn)
AC50 [7]: 4.21 µM (active)

O=C1CNC(=S)N1c1nc2ccccc2s1
EC50 [8]: > 91.2 µM (inactive)
EC50 [9]: > 91.2 µM (inactive)

C=CCn1c(NC(=O)c2ccc(C)cc2)c(C#N)sc1=N
IC50 [10]: 3.47 µM (active)
IC50 [11]: 4.44 µM (active)

COc1cccc(-n2c(SCC(N)=O)nc3ccccc3c2=O)c1
IC50 (Prothrombin): 58.2 µM (active)
IC50 [5]: 55.9 µM (active)
IC50 [6]: > 100 µM (inactive)

CCC1C/C(=C\c2cccnc2)C(=O)/C(=C/c2cccnc2)C1 (stereo not drawn)
AC50 [7]: 12.7 µM (active)
EC50 [12]: 1.01 µM (active)
EC50 [13]: 836 nM (active)

Cc1ccc(C(=O)NN2C(=O)/C(=C/c3nc4ccccc4[nH]3)SC2=S)cc1
IC50 [14]: 36.7 µM (inactive)

O=C(c1ccc(Cn2c(=S)[nH]c3ccc(N4CCOCC4)cc3c2=O)cc1)N1CCC(N2CCCCC2)CC1
AC50 [15]: 13.9 µM (active)

CCn1c(SCC(=O)N2CCN(c3ccc(Cl)cc3)CC2)nc2ccccc2c1=O
IC50 [10]: 2.83 µM (active)
IC50 [11]: 2.57 µM (active)

Cc1ccc(C)c(CNc2ccc(S(=O)(=O)N3CCCCC3)cc2)c1
AC50 [16]: 2.31 µM (active)
AC50 [17]: < 260 nM (active)
AC50 [18]: 63.8 µM (active)
AC50 [19]: 50.5 µM (active)

C[C@H]1CN([C@@H](C)CO)C(=O)c2cccc(NC(=O)Nc3ccc(C(F)(F)F)cc3)c2O[C@H]1CN(C)Cc1ccc2c(c1)OCO2
AC50 [20]: 1.77 µM (active)

CCOC(=O)[C@]12CCCC=C1N(Cc1ccc3c(c1)OCO3)C(=O)[C@H](CC(=O)NCCc1ccccc1OC)C2
IC50 [21]: 5.85 µM (active)
EC50 [22]: 4.06 µM (active)
EC50 (cells [23]): > 29.9 µM (inactive)
IC50 (cells [24]): > 29.9 µM (inactive)

C[C@H]1CN([C@@H](C)CO)C(=O)c2cccc(NC(=O)CCCCCC(=O)Nc3ccccc3N)c2O[C@H]1CN(C)Cc1ccc(C(F)(F)F)cc1
AC50 [20]: 3.96 µM (active)

C[C@@H]1CN([C@@H](C)CO)C(=O)c2cccc(NC(=O)Nc3ccc(F)cc3)c2O[C@@H]1CN(C)Cc1ccc(-c2ccccc2)cc1
AC50 [20]: 3.67 µM (active)

C[C@H]1CN([C@@H](C)CO)C(=O)c2cc(NC(=O)Nc3ccc(C(F)(F)F)cc3)ccc2O[C@@H]1CN(C)Cc1ccc(C(F)(F)F)cc1
AC50 [20]: 3.35 µM (active)

C/C(=N\NS(=O)(=O)c1ccc([N+](=O)[O-])cc1)c1c[nH]c2ccccc12
EC50 [1]: > 99 µM (inactive)
EC50 [2]: 14.9 µM (active)

Cc1ccccc1S(=O)(=O)N1[C@H](C#N)[C@@H](c2ccc(C#CC3CCCCC3)cc2)[C@@H]1CO
AC50 [25]: 6.83 µM (active)
AC50 [26]: > 39 µM (inactive)

Cc1ccc(-c2ccc([C@H]3[C@@H](CO)N4CCCCN(S(=O)(=O)c5cccc(C)c5)C[C@H]34)cc2)cc1
AC50 [25]: 1.31 µM (active)
AC50 [26]: 9.89 µM (active)

COc1ccc2c3c([nH]c2c1)[C@@H](CO)N(Cc1ccncc1)CC31CCN(Cc2ccc(-c3ccccn3)cc2)CC1
AC50 [27]: 21.2 µM (active)
AC50 [28]: 649 nM (active)
AC50 [29]: 623 nM (active)
AC50 [30]: 613 nM (active)
AC50 [25]: 0.546 µM (active)
AC50 [26]: > 39 µM (inactive)

CCC(=O)N1[C@H](CO)[C@H](c2ccc(C3=CCCCC3)cc2)[C@H]1CNC1CCCC1
AC50 [25]: 4.7 µM (active)
AC50 [26]: > 42 µM (inactive)

OCCNc1nc(Nc2cccc(O)c2)nc2ccccc12
IC50 [21]: 0.261 µM (active)
EC50 [22]: 0.0786 µM (active)
EC50 (cells [23]): > 29.9 µM (inactive)
IC50 (cells [24]): > 29.9 µM (inactive)

C[N+]1(C)[C@@H]2CC[C@H]1C[C@@H](OC(=O)C(CO)c1ccccc1)C2 (stereo partly drawn)
IC50 [10]: 2.23 µM (active)
IC50 [11]: 3.18 µM (active)

N=C(N)N/N=C/c1c(Cl)cccc1Cl [GUANABENZ]
IC50 [21]: 1.17 µM (active)
EC50 [22]: > 3.33 µM (active)
EC50 (cells [23]): > 29.9 µM (inactive)
IC50 (cells [24]): > 29.9 µM (inactive)
